# Experimental data as given in PMC5966509 (Scientific Reports, 2018).
# Biological target: T1, hA3G (human APOBEC3G) (Homo sapiens, UniProt Q9HC16)
# T1 construct: 10067; biotinylated with NHS-biotin 3:1
# Test: biolayer interferometry (Octet RED, super streptavidin sensors)
# Assay type: binding
# Conditions: biotinylated hA3G immobilised; 5% DMSO; kinetic constant from kon/koff
# T1 sequence (Q9HC16 whole entry): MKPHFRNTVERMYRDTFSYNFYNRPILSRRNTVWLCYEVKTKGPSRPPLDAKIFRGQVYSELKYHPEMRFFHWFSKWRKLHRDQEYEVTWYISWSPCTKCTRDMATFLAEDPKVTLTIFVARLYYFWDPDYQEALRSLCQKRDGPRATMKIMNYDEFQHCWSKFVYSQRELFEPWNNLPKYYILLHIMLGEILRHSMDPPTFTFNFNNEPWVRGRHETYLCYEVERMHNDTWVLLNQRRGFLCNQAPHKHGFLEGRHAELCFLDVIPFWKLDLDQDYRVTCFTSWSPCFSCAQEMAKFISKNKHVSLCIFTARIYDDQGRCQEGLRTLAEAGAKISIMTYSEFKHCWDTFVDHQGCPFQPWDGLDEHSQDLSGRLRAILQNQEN
substance,measurement,value
IMB-301,Ligand (hA3G) / KD (M),1.56E − 05 M
